Test results: ChEMBL document CHEMBL1156925, “Synthesis, structure-activity relationship and crystallographic studies of 3-substituted indolin-2-one RET inhibitors” (Bioorg Med Chem, 2010)

Experiments:
[1] = molecular target: ALK tyrosine kinase receptor (Homo sapiens, UniProt Q9UM73); test: Inhibition of ALK by ELISA-based kinase assay
[2] = molecular target: Tyrosine-protein kinase ABL1 (Homo sapiens, UniProt P00519)
[3] = molecular target: T1, Receptor-type tyrosine-protein kinase FLT3 (Homo sapiens, UniProt P36888); test: Inhibition of FLT3 by ELISA-based kinase assay
T1 sequence (P36888 whole entry): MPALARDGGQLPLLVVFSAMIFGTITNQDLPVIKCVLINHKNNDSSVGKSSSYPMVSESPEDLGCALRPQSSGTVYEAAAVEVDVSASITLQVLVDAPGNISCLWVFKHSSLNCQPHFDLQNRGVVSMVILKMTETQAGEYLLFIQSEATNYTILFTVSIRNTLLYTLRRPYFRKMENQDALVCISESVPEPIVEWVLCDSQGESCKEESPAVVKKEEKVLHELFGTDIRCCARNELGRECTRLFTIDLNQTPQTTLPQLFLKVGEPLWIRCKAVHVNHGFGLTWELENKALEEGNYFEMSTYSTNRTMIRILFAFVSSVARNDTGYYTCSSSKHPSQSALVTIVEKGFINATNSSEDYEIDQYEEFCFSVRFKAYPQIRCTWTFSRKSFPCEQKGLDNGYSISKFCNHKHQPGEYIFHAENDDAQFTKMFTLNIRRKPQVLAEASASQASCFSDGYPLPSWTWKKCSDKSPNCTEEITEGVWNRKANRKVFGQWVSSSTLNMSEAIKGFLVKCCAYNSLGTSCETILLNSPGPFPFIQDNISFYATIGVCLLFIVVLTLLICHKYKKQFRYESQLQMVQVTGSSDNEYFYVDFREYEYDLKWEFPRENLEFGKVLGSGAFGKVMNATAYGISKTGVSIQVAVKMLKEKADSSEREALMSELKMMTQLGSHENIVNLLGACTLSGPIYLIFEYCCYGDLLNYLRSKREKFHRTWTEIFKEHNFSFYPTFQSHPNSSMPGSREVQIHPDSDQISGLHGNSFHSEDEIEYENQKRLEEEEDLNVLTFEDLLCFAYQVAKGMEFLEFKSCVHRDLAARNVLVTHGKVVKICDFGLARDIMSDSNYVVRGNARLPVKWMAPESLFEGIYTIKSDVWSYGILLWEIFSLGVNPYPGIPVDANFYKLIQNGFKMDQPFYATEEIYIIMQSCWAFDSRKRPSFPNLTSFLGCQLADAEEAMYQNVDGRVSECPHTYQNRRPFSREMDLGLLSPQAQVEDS

cells [4] = settings: Mus musculus, BaPTC2
cells [5] = settings: Mus musculus, BaF3

Sequence of Tyrosine-protein kinase ABL1 (P00519 whole entry): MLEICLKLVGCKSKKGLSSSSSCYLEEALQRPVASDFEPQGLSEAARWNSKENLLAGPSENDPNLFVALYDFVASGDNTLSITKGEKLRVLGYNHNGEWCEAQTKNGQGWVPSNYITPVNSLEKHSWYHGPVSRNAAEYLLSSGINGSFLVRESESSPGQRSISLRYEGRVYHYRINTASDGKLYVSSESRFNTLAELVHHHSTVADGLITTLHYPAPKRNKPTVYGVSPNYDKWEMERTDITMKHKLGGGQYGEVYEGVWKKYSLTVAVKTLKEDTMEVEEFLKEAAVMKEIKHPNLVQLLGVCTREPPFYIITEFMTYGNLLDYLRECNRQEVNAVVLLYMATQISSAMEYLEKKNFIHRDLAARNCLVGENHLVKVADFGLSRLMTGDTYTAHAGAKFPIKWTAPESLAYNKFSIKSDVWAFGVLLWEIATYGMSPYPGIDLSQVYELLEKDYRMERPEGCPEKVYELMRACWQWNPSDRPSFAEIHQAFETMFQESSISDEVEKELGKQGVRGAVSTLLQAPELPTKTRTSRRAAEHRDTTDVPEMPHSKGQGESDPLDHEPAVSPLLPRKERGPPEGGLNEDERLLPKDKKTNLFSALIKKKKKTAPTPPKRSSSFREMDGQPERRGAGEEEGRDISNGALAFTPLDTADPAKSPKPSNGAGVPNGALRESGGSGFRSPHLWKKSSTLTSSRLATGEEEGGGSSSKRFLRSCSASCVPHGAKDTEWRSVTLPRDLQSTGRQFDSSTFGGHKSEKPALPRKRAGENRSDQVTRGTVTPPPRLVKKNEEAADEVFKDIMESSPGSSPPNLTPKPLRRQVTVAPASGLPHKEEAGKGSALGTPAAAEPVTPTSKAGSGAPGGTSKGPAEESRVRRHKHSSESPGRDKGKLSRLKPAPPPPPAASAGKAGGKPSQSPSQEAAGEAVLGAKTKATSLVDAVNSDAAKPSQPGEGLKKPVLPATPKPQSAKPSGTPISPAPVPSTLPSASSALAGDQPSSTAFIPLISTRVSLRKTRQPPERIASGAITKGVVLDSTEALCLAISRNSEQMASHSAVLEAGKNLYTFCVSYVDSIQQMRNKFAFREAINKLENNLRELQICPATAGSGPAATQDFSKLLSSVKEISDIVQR
Sequence of ALK tyrosine kinase receptor (Q9UM73 whole entry): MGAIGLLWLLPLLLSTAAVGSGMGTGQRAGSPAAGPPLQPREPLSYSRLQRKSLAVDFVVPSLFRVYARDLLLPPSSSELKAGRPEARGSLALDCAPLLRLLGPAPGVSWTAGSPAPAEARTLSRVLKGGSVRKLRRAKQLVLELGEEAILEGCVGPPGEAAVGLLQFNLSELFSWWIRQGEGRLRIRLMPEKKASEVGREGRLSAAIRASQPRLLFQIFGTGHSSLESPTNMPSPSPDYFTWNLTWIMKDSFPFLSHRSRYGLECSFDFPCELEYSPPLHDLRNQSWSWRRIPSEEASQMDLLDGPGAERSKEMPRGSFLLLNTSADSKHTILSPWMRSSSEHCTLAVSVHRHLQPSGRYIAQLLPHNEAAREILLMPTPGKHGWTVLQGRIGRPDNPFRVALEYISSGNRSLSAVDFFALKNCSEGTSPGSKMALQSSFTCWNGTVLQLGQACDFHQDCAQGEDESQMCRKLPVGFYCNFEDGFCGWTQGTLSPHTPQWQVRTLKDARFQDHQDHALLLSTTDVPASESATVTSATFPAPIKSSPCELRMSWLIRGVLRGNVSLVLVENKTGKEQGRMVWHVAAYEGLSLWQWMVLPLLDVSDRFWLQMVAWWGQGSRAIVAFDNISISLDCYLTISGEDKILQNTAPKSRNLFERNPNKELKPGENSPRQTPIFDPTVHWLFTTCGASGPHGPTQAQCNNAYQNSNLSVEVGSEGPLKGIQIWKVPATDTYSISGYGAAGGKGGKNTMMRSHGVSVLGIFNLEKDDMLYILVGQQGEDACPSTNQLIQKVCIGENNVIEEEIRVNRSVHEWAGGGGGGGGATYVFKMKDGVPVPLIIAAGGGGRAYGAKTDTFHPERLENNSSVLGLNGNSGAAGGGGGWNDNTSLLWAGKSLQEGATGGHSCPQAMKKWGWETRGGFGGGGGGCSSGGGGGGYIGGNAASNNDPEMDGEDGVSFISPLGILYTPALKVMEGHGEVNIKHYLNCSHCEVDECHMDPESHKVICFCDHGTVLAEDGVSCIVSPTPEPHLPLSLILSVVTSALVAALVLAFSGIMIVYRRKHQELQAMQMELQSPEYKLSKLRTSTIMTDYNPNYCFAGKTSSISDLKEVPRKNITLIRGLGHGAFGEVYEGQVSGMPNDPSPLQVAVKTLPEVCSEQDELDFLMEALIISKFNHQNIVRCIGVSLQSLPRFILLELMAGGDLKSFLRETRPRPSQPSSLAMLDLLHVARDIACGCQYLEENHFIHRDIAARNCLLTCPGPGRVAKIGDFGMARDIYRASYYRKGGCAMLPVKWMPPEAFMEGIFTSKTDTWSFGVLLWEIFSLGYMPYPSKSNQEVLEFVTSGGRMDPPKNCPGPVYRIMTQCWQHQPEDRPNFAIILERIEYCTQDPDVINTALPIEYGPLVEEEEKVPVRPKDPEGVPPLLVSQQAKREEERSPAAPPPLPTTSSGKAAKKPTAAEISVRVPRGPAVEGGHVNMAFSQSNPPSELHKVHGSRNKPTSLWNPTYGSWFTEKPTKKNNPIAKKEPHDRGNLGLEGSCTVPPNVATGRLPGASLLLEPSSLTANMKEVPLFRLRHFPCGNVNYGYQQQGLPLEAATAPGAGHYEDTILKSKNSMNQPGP

An IC50 [1] greater than 50 µM, an IC50 [2] greater than 50 µM and an IC50 [3] of 1.8 µM were found for `O=C1Nc2ccccc2/C1=C\c1ccc(O)cc1` in this work. For the same compound, the IC50 (cells [4]) was 16 µM and the IC50 (cells [5]) was greater than 50 µM.

An IC50 [1] greater than 50 µM, an IC50 [2] greater than 50 µM and an IC50 [3] of 0.4 µM were found for `Cc1cccc2c1/C(=C/c1ccc(N(C)C)c3ccccc13)C(=O)N2` in this work. The IC50 (cells [4]) was 10 µM and the IC50 (cells [5]) was 10 µM.

An IC50 [1] of 18 µM, an IC50 [2] greater than 50 µM and an IC50 [3] of 8.7 µM were found for `CN(C)S(=O)(=O)c1ccc2c(c1)/C(=C/c1cc3c([nH]1)CCCC3)C(=O)N2` in this work. The IC50 (cells [4]) was 0.16 µM and the IC50 (cells [5]) was 0.18 µM.

An IC50 [1] of 5.4 µM, an IC50 [2] of 19 µM and an IC50 [3] of 4.3 µM were found for `CCOC(=O)c1c(C)[nH]c(/C=C2\C(=O)Nc3ccccc32)c1C` in this work. It also gave an IC50 (cells [4]) of 0.025 µM and an IC50 (cells [5]) of 2.6 µM.

An IC50 (cells [4]) of 0.22 µM and an IC50 (cells [5]) of 1.2 µM were found for `CCN(CC)CCNC(=O)c1c(C)[nH]c(/C=C2\C(=O)Nc3ccc(F)cc32)c1C` [SUNITINIB] in this work.
